Holding throughout (assay type): cell-based
Experiment [1] deals with Wnt activity (Sp5-Luc reporter, SW480 colon carcinoma cells). The experiment can be described thus: Wnt activity screening assay, Sp5-Luc reporter gene in SW480 cells. As to conditions: Homo sapiens, overnight incubation. The source says: The screening assay for Wnt activity is described as follows. Reporter cell lines can be generated by stably transducing cancer cell lines (e.g., colon cancer) or primary cells (e.g., IEC-6 intestinal cells) with a lentiviral construct that includes a Wnt-responsive promoter driving expression of the firefly luciferase gene.
SW480 colon carcinoma cells were transduced with a lentiviral vector expressing luciferase with a human Sp5 promoter consisting of a sequence of eight TCF/LEF binding sites. SW480 cells stably expressing the Sp5-Luc reporter gene and a hygromycin resistance gene were selected by treatment with 150 μg/mL of hygromycin for 7 days. These stably transduced SW480 cells were expanded in cell culture and used for all further screening activities. Each compound was dissolved in DMSO as a 10 mM stock and used to prepare compound source plates. Serial dilution (1:3, 10-point dose-response curves starting from 10 μM) and compound transfer was performed using the ECHO 550 (Labcyte, Sunnyvale, Calif.) into 384-well white solid bottom assay plates (Greiner Bio-One) with appropriate DMSO backfill for a final DMSO concentration of 0.1%. For Sp5-Luc reporter gene assays, the cells were plated at 4,000 cells/well in 384-well plates with medium containing 1% fetal bovine serum and incubated overnight at 37° C. and 5% CO2. Following incubation, 20 μl of BrightGlo luminescence reagent (Promega) was added to each well of the 384-well assay plates. The plates were placed on an orbital shaker for 2 min and then luminescence was quantified using the Envision (Perkin Elmer) plate reader. Readings were normalized to DMSO only treated cells, and normalized activities were utilized for EC50 calculations using the dose-response log (inhibitor) vs. response-variable slope (four parameters) nonlinear regression feature available in GraphPad Prism 5.0 (or Dotmatics). For EC50 of >10 μM, the percent inhibition at 10 μM is provided.

Experiment [2] relates to SW480 colon cancer cells. Put plainly: Cell viability assay (CellTiter-Blue). To be noted: Homo sapiens, 96 h, four days. The method, then: Representative compounds were screened using the following assay procedure to assess the effect on cell viability as described below.
Each compound was dissolved in DMSO as a 10 mM stock and used to prepare compound source plates. Serial dilution (1:3, 8-point dose-response curves from 10 μM to 0.0045 μM) and compound transfer was performed using the ECHO 550 (Labcyte, Sunnyvale, Calif.) into 96-well clear bottom, black-walled plates (Corning-Costar).
Approximately 2×10^3 SW480 colon cancer cells were seeded into each well and allowed to incubate in the presence or absence of compound for four days at 37° C./5% CO2. Eight replicates of DMSO-treated cells served as controls and cells treated with compound were performed in duplicate.
After incubation, 20 μL of CellTiter-Blue (Promega) was added to each well allowed to incubate for approximately 3 hours. This reagent was a buffered solution which contains resazurin, metabolically active cells were able to reduce rezarurin (blue) into resorufin (pink) which was highly fluorescent. This measured fluorescence was used as a readout for cell viability.
After incubation, the plates were read at Ex 560 nm Em 590 nm (Cytation 3, BioTek). Dose-response curves were generated and EC50 concentration values were calculated using non-linear regression curve fit in the GraphPad Prism (San Diego, Calif.) or Dotmatics' Studies Software (Bishops Stortford, UK). For EC50 of >10 μM, the percent inhibition at 10 μM is provided.

Experiment [3] deals with primary human fibroblasts derived from IPF patients (LL29 cells) treated with TGF-β1. The experiment can be described thus: Inhibition of fibrotic process, αSMA staining in TGF-β1 treated LL29 fibroblasts. To be noted: Fibroblast, 96 h, % αSMA positive LL29 cells, TGF-β1 20 ng/mL, 4 days. The source says: Representative compounds were screened using primary human fibroblasts (derived from IPF patients) treated with TGF-β1 to determine their ability to inhibit the fibrotic process.
Primary human fibroblasts derived from IPF patients (LL29 cells) [^1Xiaoqiu Liu, et. al., “Fibrotic Lung Fibroblasts Show Blunted Inhibition by cAMP Due to Deficient cAMP Response Element-Binding Protein Phosphorylation”, Journal of Pharmacology and Experimental Therapeutics (2005), 315(2), 678-687; ^2Watts, K. L., et. al., “RhoA signaling modulates cyclin D1 expression in human lung fibroblasts; implications for idiopathic pulmonary fibrosis”, Respiratory Research (2006), 7(1), 88] were obtained from American Type Culture Collection (ATCC) and expanded in F12 medium supplemented with 15% Fetal Bovine Serum and Penicillin/Streptomycin.
Each compound was dissolved in DMSO as a 10 mM stock and used to prepare compound source plates. Serial dilution (1:2, 11-point dose-response curves from 10 μM to 1.87 nM) and compound transfer was performed using the ECHO 550 (Labcyte, Sunnyvale, Calif.) into 384-well clear bottom assay plates (Greiner Bio-One) with appropriate DMSO backfill for a final DMSO concentration of 0.1%. LL29 cells are plated at 1,500 cells/well in 80 μL/well F12 medium supplemented with 1% Fetal Bovine Serum. One hour after addition of the cells, TGF-β1 (Peprotech; 20 ng/mL) was added to the plates to induce fibrosis (ref. 1 and 2 above). Wells treated with TGF-β1 and containing DMSO were used as controls. Cells were incubated at 37° C. and 5% CO2 for 4 days. Following incubation for 4 days, SYTOX green nucleic acid stain (Life Technologies [Thermo Fisher Scientific]) was added to the wells at a final concentration of 1 μM and incubated at room temperature for 30 min. Cells were then fixed using 4% formaldehyde (Electron Microscopy Sciences), washed 3 times with PBS followed by blocking and permeabilization using 3% Bovine Serum Albumin (BSA; Sigma) and 0.3% Triton X-100 (Sigma) in PBS. Cells were then stained with antibody specific to α-smooth muscle actin (αSMA; Abcam) (ref. 1 and 2 above) in 3% Bovine Serum Albumin (BSA; Sigma) and 0.3% Triton X-100 (Sigma) in PBS, and incubated overnight at 4° C. Cells were then washed 3 times with PBS, followed by incubation with Alexa Flor-647 conjugated secondary antibody (Life Technologies [Thermo Fisher Scientific]) and DAPI at room temperature for 1 hour. Cells were then washed 3 times with PBS and plates were sealed for imaging. αSMA staining was imaged by excitation at 630 nm and emission at 665 nm and quantified using the Compartmental Analysis program on the CellInsight CX5 (Thermo Scientific). Dead or apoptotic cells were excluded from analysis based on positive SYTOX green staining. % of total cells positive for αSMA were counted in each well and normalized to the average of 11 wells treated with TGF-β1 on the same plate using Dotmatics' Studies Software. The normalized averages (fold change over untreated) of 3 replicate wells for each compound concentration were used to create dose-responses curves and EC50 values were calculated using non-linear regression curve fit in the Dotmatics' Studies Software. For EC50 of >10 μM, the percent inhibition at 10 μM is provided.

Experiment [4] concerns IL-6 (THP-1 cells). Put plainly: IL-6 inhibition in LPS-stimulated THP-1 cells (HTRF). As to conditions: Homo sapiens; IL-6 in THP-1 cells, LPS 500 ng/mL, 22 hours. The method, then:
Human monocyte cell line (THP-1 cells; Catalog # TIB-202, ATCC, Manassas, Va.) were cultured in Roswell Park Memorial Institute (RPMI) 1640 Medium (Catalog #21870-100, Buffalo, N.Y.) with 1% L-glutamine, 1% HEPES, 1% Sodium Pyruvate, 2% Sodium Bicarbonate supplemented with 100 units/mL penicillin, 50 μg/mL streptomycin, 2-mercaptoethanol (0.05 mM) [basal medium] and 10% fetal bovine serum (Catalog #16140089, Life Technologies, Carlsbad, Calif.) at 37° C. and 5% CO2.
THP-1 cells were cultured in basal media with 1% FBS for 24 hours before the start of the assay. Each compound was dissolved in DMSO as a 10 mM stock and used to prepare compound source plates. Serial dilution (1:3, 10-point dose-response curves starting from 10 μM) and compound transfer was performed using the ECHO 550 (Labcyte, Sunnyvale, Calif.) into 384-well white low volume assay plates (Greiner Bio-One) with appropriate DMSO backfill for a final DMSO concentration of 0.1%. THP-1 cells were plated at 5000 cells/well in the 384-well plates and incubated at 37° C. for 2 h. 500 ng/mL of LPS was added after 2 hours and cells were incubated for another 22 hours at 37° C. Plates were spun in a centrifuge for 1 minute at […] and a mixture of anti-IL6 XL665, and anti-IL6 Cryptate diluted in reconstitution buffer (Cisbio Inc.) was added to each well. Following incubation for 3 hrs at room temperature, Homogeneous Time-Resolved Fluorescence (HTRF) was measured using the Envision (Perkin Elmer) at 665 nm and […]. The ratio of fluorescence at 665 nm to 620 nm was used as a readout for IL6 quantification. All samples were processed in duplicate. Readings were normalized to DMSO treated cells and normalized activities were utilized for EC50 calculations using the dose-response log (inhibitor) vs. response-variable slope (four parameters) nonlinear regression feature available in GraphPad Prism 5.0 (or Dotmatics). For EC50 of >10 μM, the percent inhibition at 10 μM is provided.

Structures are written as SMILES.

In the case of `O=C(Nc1cncc(-c2cc3c(-c4cc5c(-c6ccoc6)ccnc5[nH]4)n[nH]c3cn2)c1)C1CC1` [Compound 328, N-(5-(3-(4-(Furan-3-yl)-1H-pyrrolo[2,3-b]pyridin-2-yl)-1H-pyrazolo[3,4-c]pyridin-5-yl)pyridin-3-yl)cyclopropanecarboxamide], the EC50 in experiment [1] was 121 nM; in experiment [2], 107 nM; in experiment [3], 37 nM; in experiment [4] it was 533 nM.

In the case of `c1csc(-c2ccnc3[nH]c(-c4n[nH]c5cnc(-c6cncc(CN7CCCCC7)c6)cc45)cc23)c1` [Compound 351, 5-(5-(Piperidin-1-ylmethyl)pyridin-3-yl)-3-(4-(thiophen-2-yl)-1H-pyrrolo [2,3-b]pyridin-2-yl)-1H-pyrazolo[3,4-c]pyridine], the EC50 in experiment [1] came out at 6900 nM; in experiment [2], 4100 nM; in experiment [3], 2560 nM; in experiment [4], 182 nM.

As for `c1ccc(-c2cc3c(-c4cc5c(-c6cccs6)ccnc5[nH]4)n[nH]c3cn2)nc1` [Compound 364, 5-(Pyridin-2-yl)-3-(4-(thiophen-2-yl)-1H-pyrrolo[2,3-b]pyridin-2-yl)-1H-pyrazolo[3,4-c]pyridine], the EC50 in experiment [1] was 630 nM; in experiment [2], 706 nM; in experiment [3], 403 nM; in experiment [4], 1010 nM.

Consider `Cc1ncc(-c2cc3c(-c4cc5c(-c6cccs6)ccnc5[nH]4)n[nH]c3cn2)n1C` [Compound 701, 5-(1,2-Dimethyl-1H-imidazol-5-yl)-3-(4-(thiophen-2-yl)-1H-pyrrolo[2,3-b]pyridin-2-yl)-1H-pyrazolo[3,4-c]pyridine], for which the EC50 in experiment [1] came out at 1060 nM; in experiment [2], 1220 nM; in experiment [3] it was 928 nM; in experiment [4], 988 nM.
